Legend:
[1] = tested on: AsPC1 pancreatic cancer cells; assay: MTT tumor cell proliferation assay, AsPC1; format: cell-based, human; conditions: AsPC1, 5, 10, 20, or 50 μg/ml for 48 hours
Method: (§1) FIG. 3 illustrates the effect of S2 and its analogs on tumor cell proliferation. Cells were treated with DMSO or Survivin targeting molecules at the indicated concentration for 48 hours. The percentage of viable cells was evaluated by MTT assay. (A) AsPC1; (B) HeLa; (C) SKBR3; (D) DAOY.
(§2) FIG. 18 illustrates the effect of SBDO3, SN2, or SDC1 on tumor cell proliferation. (A) AsPC1 cells were treated with DMSO or the Survivin targeting molecules SBDO3 or SN2 at the indicated concentration for 48 hours. (B) SKBR3 cells were treated with DMSO or SDC1 for 48 hours. The percentage of viable cells was evaluated by MTT assay.
(§3) S2 and its analogs (S10, S11, S12, and S13) were tested for the ability to inhibit tumor cell proliferation by MTT assay. The AsPC1 pancreatic cancer cells were treated with DMSO, a control molecule SC2, or the Survivin-targeting compounds at the concentration of 5, 10, 20, or 50 μg/ml for 48 hours. The number of viable cells was evaluated by MTT.
(§4) SBDO3, SN2 and SDC1 were tested for the ability to inhibit tumor cell proliferation by MTT assay. The AsPC1 pancreatic cancer cells were treated with DMSO or the Survivin-targeting compounds at the concentration of 5, 10, 20, or 50 μg/ml for 48 hours. The number of viable cells was evaluated by MTT.

HeLa cells [2] = assay: Cell cycle analysis of DNA content by PI staining and FACS, HeLa; format: cell-based, human; conditions: for accumulation of cells in the G2/M stage: HeLa, 15 hours, FACS DNA content; for block of cells in mitosis: FACS analysis and immunofluorescence studies
Method: FIG. 7 illustrates the effect of S2 or S12 on cell cycle progression. HeLa cells were treated with S2, S12, S10, S1 (control compound), or DMSO (control), propidium iodide (PI) staining and FACS analysis were performed to quantify the DNA content of cells.
FIG. 9 illustrates the effect of S12 on mitosis. (A) HeLa cells were treated with S12, S2 or DMSO for 15 hours. The cells were then fixed and subjected to immunostaining using antibodies specific for Aurora B (green) and Survivin (red). DNA was stained with DAPI. Chromosome misalignment is indicated with the arrowheads. (B) Percentage of S12-treated cells in mitosis, in metaphase, in anaphase/telophase, or with misaligned chromosomes. (C) Percentage of S2-treated cells in mitosis, in metaphase, in anaphase/telophase, or with misaligned chromosomes. (D) HeLa cells were treated with S12 (10 μg/ml) or DMSO (control) for 15 hours. Cells were examined by PI staining of DNA content by FACS analysis.
FIG. 17 illustrates (A) FACS analysis of DNA content of HeLa cells treated with SBDO3. Note the accumulation of cells at the G2/M stage. Cell death was also observed (sub-G1 population); (B) Immuno-fluorescence microscopy analysis of cell treated with SBDO3. Note that the microtubule bundles of the mitotic spindle are disorganized. The chromosomes are not aligned properly and cells cannot go through metaphase.
The candidate Survivin-targeting molecules identified by the virtual screen were examined for the ability to inhibit cell proliferation and mitosis. HeLa cells were treated with the compounds at various concentrations for 15 hours followed by examination of the DNA content by FACS analysis. […] The effects of S2 inflicted on cell proliferation and viability are consistent with the anticipated outcome caused by the ablation of Survivin functions. We have extended these studies to test a number of molecules that are structurally similar to S2, including S10, S11, S12 and S13. […] S12 affected cell proliferation and viability, consistent with the anticipated outcome caused by ablation of Survivin functions.
We analyzed distribution of cells in the different stages of the cell cycle by FACS. […] In addition, the inhibitory effect of SBDO3 is dose dependent (FIG. 17A).
We also conducted immuno-fluorescence studies on SBDO3 treated HeLa cells.

Survivin protein = target: T1, Survivin protein (Homo sapiens, UniProt O15392); assay: Isothermal titration calorimetry (ITC) binding to native Survivin; conditions: ITC, in words
T1 construct: made in house; host or cells: bacteria
Method: FIG. 5 illustrates an analysis of S12-Survivin binding with isothermal titration calorimetry (ITC). Single-site point mutagenesis was performed to create the Survivin mutants F86A and V89Y. The native and the mutant proteins were produced and purified from bacteria.
FIG. 16 illustrates the isothermal titration calorimetry profile of the binding of SBDO3 to the Survivin homodimer.
In order to examine the specificity of the binding, we generated point mutations on the Survivin protein at the site presumably targeted by S12. The two mutations were substitutions of phenylalanine 86 with alanine (F86A) and valine 89 with tyrosine (V89Y). These two altered sites are also adjacent to the interface involved in dimerization of the Survivin protein. Based on structural analyses, we predict that alterations of either of these two amino acid residues may abolish the binding of S12 without affecting the overall structure of the Survivin protein.
We tested the binding of the Survivin target molecules to Survivin by isothermal titration calorimetry.

SKBR3 breast cancer cell = assay: MTT tumor cell proliferation assay, SKBR3; format: cell-based, human; conditions: SKBR3, 48 hours
Method: as §1, §2, §3, §4

HeLa cells [3] = assay: BrdU incorporation DNA synthesis assay (FACS), HeLa; format: cell-based, human; conditions: 4 hours treatment then one-hour BrdU
Method: BrdU-labeled cells were analyzed by FACS. The percentage of BrdU-positive cells is indicated.
HeLa cells were treated with S12, aphidicolin, or DMSO (control) for 4 hours. BrdU was then added to the medium followed by an additional incubation of 1 hour. The amount of BrdU was examined by staining with anti-BrdU antibody and FACS analysis. The percentage of BrdU-positive cells is shown.
To establish the specificity of the biological activities of the Survivin targeting we examined whether the compounds affect DNA synthesis. HeLa cells were treated with Aphidicolin, S2 or DMSO for 4 hours, followed by one-hour incubation with BrdU. The cells were then collected, fixed and stained with FITC-labeled anti-BrdU antibody.

T1 sequence (O15392 whole entry): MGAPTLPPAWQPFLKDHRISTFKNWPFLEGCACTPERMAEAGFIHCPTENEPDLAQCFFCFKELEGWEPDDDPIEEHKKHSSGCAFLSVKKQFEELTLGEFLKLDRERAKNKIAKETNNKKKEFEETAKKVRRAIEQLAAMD

| Structure (SMILES) | inhibition of cell proliferation / cell viability [1] | accumulation of cells in the G2/M stage (HeLa cells [2]) | binding to the Survivin protein (Survivin protein) | block of cells in mitosis (HeLa cells [2]) | inhibition of proliferation (SKBR3 breast cancer cell) | DNA synthesis (BrdU incorporation) (HeLa cells [3]) |
| --- | --- | --- | --- | --- | --- | --- |
| O=C(CC1(O)C(=O)Nc2ccc(Br)cc21)c1ccc(F)cc1 (stereo not shown) [S10] | can inhibit cell proliferation and reduce cell viability in a dose-dependent manner | exhibit the ability to arrest the cells at the G2/M stage |  |  |  |  |
| O=C(CC1(O)C(=O)Nc2ccccc21)c1ccccc1 (stereo not shown) [S13] | can inhibit cell proliferation and reduce cell viability in a dose-dependent manner | exhibit the ability to arrest the cells at the G2/M stage |  |  |  |  |
| O=C(O)c1ccccc1C(=O)c1ccc(Sc2ccccc2)c([N+](=O)[O-])c1 [SDC1] | can inhibit cell proliferation and reduce cell viability in a dose-dependent manner |  | can bind to the Survivin protein | can also block cells in mitosis | can inhibit proliferation |  |
| COc1ccc(C2C(C#N)=C(N)OC3=C2C(=O)CC(C)(C)C3)cc1OCc1ccccc1 (stereo not shown) [SN2] | can inhibit cell proliferation and reduce cell viability in a dose-dependent manner |  |  | can also block cells in mitosis |  |  |
| C[C@@]1(CO)[C@H](O)CC[C@@]2(C)[C@H]1CC[C@H]1C[C@@H]3C[C@@]12CC[C@]3(O)CO [aphidicolin, reference compound] |  |  |  |  |  | inhibits DNA replication |
| O=C(CC1(O)C(=O)Nc2ccc(Br)cc21)c1cccc([N+](=O)[O-])c1 (stereo not shown) [S11] | can inhibit cell proliferation and reduce cell viability in a dose-dependent manner | exhibit the ability to arrest the cells at the G2/M stage |  |  |  |  |
